Biological target: T1, angiotensin II receptor (Oryctolagus cuniculus, UniProt P34976)
T1 construct: The aorta was cut into 3~4 mm to form ring samples; from tissue; host or cells: isolated aorta rings of New Zealand White rabbits
T1 sequence (P34976 1-359): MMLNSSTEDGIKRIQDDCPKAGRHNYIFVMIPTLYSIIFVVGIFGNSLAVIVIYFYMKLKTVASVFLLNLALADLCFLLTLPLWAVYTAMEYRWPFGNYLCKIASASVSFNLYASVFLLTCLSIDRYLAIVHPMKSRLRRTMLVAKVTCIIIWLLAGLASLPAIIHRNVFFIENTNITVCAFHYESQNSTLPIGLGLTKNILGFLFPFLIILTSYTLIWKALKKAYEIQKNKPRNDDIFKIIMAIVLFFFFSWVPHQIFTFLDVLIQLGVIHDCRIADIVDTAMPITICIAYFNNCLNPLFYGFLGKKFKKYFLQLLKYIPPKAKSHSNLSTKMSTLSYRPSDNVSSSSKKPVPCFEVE
Test: inhibition of angiotensin II induced contraction of isolated rabbit aorta rings
Type: cell-based, New Zealand White rabbit
Conditions: test compound incubated 20 minutes, 37° C., pH 7.4, read-out: IC50 (concentration being required to inhibit angiotensin II induced contraction by 50%)
Summary of the method: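 Rabbit aortic rings in Krebs-Henseleit, 37 °C, pH 7.4, 2 g tension, contracted with Angiotensin II […] three times, the third serving as control. Compound incubated 20 min before rechallenge; IC50 is concentration inhibiting Angiotensin II contraction by 50%.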

| IC50 | SMILES |
| --- | --- |
| 9.13 nM | CCCCc1nc(C)c(CC(=O)N2CCSC2)c(=O)n1Cc1ccc(-c2ccccc2-c2nn[nH]n2)cc1 [Compound 72, 2-n-butyl-5-thiazolidinocarbonylmethyl-6-methyl-3-[[2'-(1H-tetrazol-5-yl)biphenyl-4-yl]methyl]-pyrimidin-4-(3H)-one] |
| 2.76 nM | CCCCc1nc(C)c(CC(=O)N2CCSCC2)c(=O)n1Cc1ccc(-c2ccccc2-c2nn[nH]n2)cc1 [Compound 75, 2-n-butyl-5-thiomorpholinocarbonylmethyl-6-methyl-3-[[2'-(1H-tetrazol-5-yl)biphenyl-4-yl]methyl]-pyrimidin-4-(3H)-one] |
| 3.64 nM | CCCCc1nc(C)c(CC(=O)N2CCCC(C(=O)N(CC)CC)C2)c(=O)n1Cc1ccc(-c2ccccc2-c2nn[nH]n2)cc1 (centres unmarked) [Compound 55, 2-n-butyl-5-(3'-diethylaminocarbonylpiperidinocarbonylmethyl)-6-methyl-3-[[2'-(1H-tetrazol-5-yl)biphenyl-4-yl]methyl]-pyrimidin-4-(3H)-one] |

Further lines, the compound ahead of its results:

| SMILES | IC50 |
| --- | --- |
| CCCc1nc(C)c(CC(=O)O)c(=O)n1Cc1ccc(-c2ccccc2-c2nnn[nH]2)cc1 [Compound 10, 2-n-propyl-5-carboxymethyl-6-methyl-3-[[2'-(1H-tetrazol-5-yl)-biphenyl-4-yl]methyl]-pyrimidin-4-(3H)-one] | 37.1 nM |
| CCCc1nc(C)c(CCC(=O)N(CC)CC)c(=O)n1Cc1ccc(-c2ccccc2-c2nnn[nH]2)cc1 [Compound 16, 2-n-propyl-5-(2'-diethylaminocarbonylethyl)-6-methyl-3-[[2'-(1H-tetrazol-5-yl)biphenyl-4-yl]methyl]-pyrimidin-4-(3H)-one] | 174 nM |
| CCCCc1nc(CC)c(CCC(=O)OCC)c(=O)n1Cc1ccc(-c2ccccc2-c2nn[nH]n2)cc1 [Compound 33, 2-n-butyl-5-(2'-ethoxycarbonylethyl)-6-ethyl-3-[[2'-(1H-tetrazol-5-yl)biphenyl-4-yl]methyl]-pyrimidin-4-(3H)-one] | 11.2 nM |
| CCCCc1nc(C)c(CCC(=O)N2CCC(Cc3ccccc3)CC2)c(=O)n1Cc1ccc(-c2ccccc2-c2nn[nH]n2)cc1 [Compound 63, 2-n-butyl-5-[2'-(4"-benzylpiperidino)carbonylethyl]-6-methyl-3-[[2'-(1H -tetrazol-5-yl)biphenyl-4-yl]methyl]-pyrimidin-4-(3H)-one] | 302 nM |

Same assay, conditions: test compound incubated 20 minutes, value given in M, read-out: IC50 (concentration being required to inhibit angiotensin II induced contraction by 50%)

| IC50 | SMILES |
| --- | --- |
| > 10000 nM | CCCCc1nc(C)c(CCC(=O)N2CCC(C)CC2)c(=O)n1Cc1ccc(-c2ccccc2-c2nn[nH]n2)cc1 [Compound 64, 2-n-butyl-5-[2'-(4"-methylpiperidino)carbonylethyl]-6-methyl-3-[[2'-(1H-tetrazol-5-yl)biphenyl-4-yl]methyl]-pyrimidin-4-(3H)-one] |
